Values of other authors, collected in patent US20060013877A1 (Nanohybrid Co., Ltd., priority 2002, published 2006).

## CCC(C)n1ncn(-c2ccc(N3CCN(c4ccc(OC[C@H]5CO[C@](Cn6cncn6)(c6ccc(Cl)cc6Cl)O5)cc4)CC3)cc2)c1=O (mixture of isomers) [itraconazole, (±)-cis-4-[4-[4-[4-[[2-(2,4-dichlorophenyl)-2-(1H-1,2,4-triazole-1-ylmethyl)-1,3-dioxoran-4-yl]methoxy]phenyl]-1-piperazinyl]phenyl]-2,4-dihydro-2-(1-methylpropyl)-3H-1,2,4-triazole-3-one]
  water solubility: about 1 mg/ml
